{"source": "patent US6750212B2", "about": "“Photochemotherapeutic compositions” (PhotoCure AS, priority 1997, dated 2004)", "key": {"[1]": {"system": "Colon carcinoma WiDr", "experiment": "PDT of WiDr colon carcinoma in nude mice, Curelight broad-band lamp one hour after drug, regression/regrowth time", "format": "in vivo, Balb/c nu/nu nude mice", "settings": "for effect on tumor growth after PDT: Example 5.1, FIG. 4, 5-ALA 250 mg/kg i.p. and/or chlorin e6 1 mg/kg i.v., lamp 161 mW/cm^2 15 minutes, one hour after injection; for anti-tumour effect after PDT: Example 5.2, FIG. 5, ALA-methyl ester 273 mg/kg i.p. and/or A1PcS2a 1 mg/kg i.v.", "method": "5-ALA (ALA) and ALA-Methyl ester (ME) were dissolved in isotonic saline to a final concentration of […].\nALA-Butyl ester (BU) was dissolved in a small amouont of ethanol and diluted further in isotonic saline to a final concentration of […] (final ethanol concentration was 2% v/v).\nAluminium phthalocyanine di-sulfonate (A1PcS2a) (Porphyrin Products Inc.) dissolved in a few drops of 1M NaOH and diluted in phosphate buffered saline (PBS, 10 MM Na-phosphate pH 7.4/150 mM NaCl) to a final concentration of 0.25 mg/ml.\nChlorin e6 (e6)(Porphyrin Products Inc.) was dissolved in PBS to a final concentration of 0.25 mg/ml.\nALA, ALA methyl ester or ALA butyl ester were administered intraperitoneally (i.p.), whereas the sensitizers were injected intravenously (i.v.).\nAll animals received the same amount of ALA (1.5 mmole), either as the free acid or in the form of an ester. […]\nSuspensions of the human tumour (Colon carcinoma WiDr-propagated by serial transplantation) was prepared from non-necrotic areas of the respective tumours and injected (20 μl) into the right hind foot of each mouse. […] Injection volume: 100 μl per mouse (approx. 25 g bodyweight).\nIllumination occurred one hour after injection of the drugs instead of three hours that was used in previous examples. In contrast to previous examples, a broad-band lamp that covers the range of 600 to 700 nm (Curelight, patent applied for by PhotoCure AS) was used instead of the laser. This was because the light should cover combinations of phthalocyanines (absorption maximum 670 nm) and protoporphyrin IX (absorption maximum 630 nm) induced by ALA or ALA-esters, respectively.\nThe average tumour volume in each group (mean ±SD) was calculated and plotted against time. The experiment was terminated when the tumor volume had reached 4-5 times the initial volume.\nOne hour after injection of the drugs the mice were irradiated using the Curelight broad-band lamp (161 mW/cm^2 for 15 minutes-144.9 J/cm^2).\nResponses of the tumors were evaluated as regression/regrowth time. The size of the tumours were measured every second day and the tumour volumes calculated according to the formula in Example 2. The mice were sacrificed when the tumour volume had reached 5 times the initial volume. For each time point, the mean (and the standard deviation of the mean) tumour volume (n=4-5) were calculated. The data were then submitted to statistical analysis (Q-test/90% confidence interval) and extreme values were rejected."}, "[2]": {"system": "WiDr human colonic carcinoma", "experiment": "PDT of WiDr human colonic carcinoma in nude mice, laser light 3 hours after drug, tumor regression/regrowth time", "format": "in vivo, Balb/c nu/nu nude mice", "text": "5-aminolevulinic acid (ALA) hydrochloride was purchased from Sigma Chemical Company (St. Louis, Mo.). ALA was freshly dissolved in isotonic saline and given intraperitoneally to mice. PHOTOFRIN® vascular stroma-localizing photosensitizer was obtained from Quadra Logic Technologies (Vancouver, Canada). The solution of PHOTOFRIN® vascular stroma-localizing photosensitizer was made up in isotonic solution containing 5% dextrose and given to mice intravenously via the tail vein.\nFemale Balb/c nu/nu nude mice were obtained from The Animal Department, The Norwegian Radium Hospital, housed 10 per cage and kept under specific-pathogen-free conditions. The mice were 6 weeks old and weighed 20-22 g when the experiments started. The WiDr human colonic carcinoma, used in the present study, was propagated by serial transplantation into the nude mice. Non-necrotic tumor material for inoculation was obtained by sterile dissection of large flange tumors from syngeneic mice. Macroscopically viable tumor tissue was gently minced with a pair of scissors and forced repeatedly through sterile needles of diminishing sizes from 19-gauge to 25-gauge to make a tumor-tissue suspension, 0.02 ml of which was then injected into the dorsal side of the right hind foot of each mouse. The rate of successful transplantations was nearly 100% in the present experiments. […] The tumor volume was calculated using the following formula: […]\nwhere D1, D2 and D3 are three orthogonal diameters of the tumors which were measured daily by a caliper.\nUnanesthetized mice were fixed in Lucite jigs specially designed for irradiation. The tumor area was exposed to red light from a dicyanomethylane-2-methyl-6-(p-dimethylaminostyryl)-4 H-pyran (DCM) dye laser pumped by a 5W argon ion laser (Spectra Physics, 164). The tuning range was 610-690 nm. The dye laser was tuned at 632 for both ALA-derived PpIX and PHOTOFRIN®vascular stroma-localizing photosensitizer, the tuning being controlled by means of a monochromator. […]\nResponses of the treated tumors were evaluated as described previously."}, "[3]": {"system": "Human rectal papillary villous adenomas", "experiment": "Fluorescence localization in human rectal papillary villous adenomas by fluorescence microscopy", "format": "in vivo", "settings": "4.5 hours after oral administration of 60 mg/kg ALA; FIG. 3 B", "method": "Human rectal papillary villous adenomas from 2 patients with severe dysplasia and with a diarrheal history for some months before diagnosis were sampled 44 hours after intravenous injection of 2 mg/kg body weight PHOTOFRIN® vascular stroma-localizing photosensitizer or 4.5 hours after oral administration of 60 mg/kg ALA. The samples were immediately immersed in liquid nitrogen, then mounted in medium (Tissue Tek II embedding compound: BDH, Poole, UK). Frozen tissue sections were cut with a cryostat to a thickness of 8 Am and mounted on clean glass slides. The fluorescence localization patterns of ALA-induced PpIX and PHOTOFRIN were studied by fluorescence microscopy. The fluorescence microscopy was carried out with an Axioplan microscope (Zeiss, Germany). The filter combination comprised a 390-440 nm excitation filter, a 460 nm beam splitter and a >600 nm emission filter. The fluorescence images were recorded by a CCD camera (Astromed CCD 3200, Cambridge, UK) and an image processing unit (Astromed/Visilog, PC 486DX2 66 MHz VL)."}, "[4]": {"settings": "Example 5.4, FIG. 7, 5-ALA butyl ester 338 mg/kg i.p. and/or A1PcS2a 1 mg/kg i.v., lamp one hour after injection"}, "[5]": {"settings": "Example 3, FIG. 2, ALA 250 mg/kg i.p. (632 nm) and/or m-THPC 75 μg/kg i.v. (652 nm), laser light 3 hours after drug"}, "[6]": {"settings": "Example 5.5, FIG. 8, 5-ALA methyl ester 273 mg/kg i.p. and/or A1PcS4 1 mg/kg i.v., lamp one hour after injection"}}}
{"compound": "CCCCOC(=O)CCC(=O)CN", "note": "[ALA butyl ester, 5-ALA butyl ester]", "values": [{"measurement": "time for tumours to reach 4 times the initial volume", "setting": "[1]; Example 5.3, FIG. 6, 5-ALA butyl ester 338 mg/kg i.p. alone, lamp one hour after injection", "result": 11, "unit": "days"}, {"measurement": "effect on tumour growth after PDT", "setting": "[1]; [4]", "result": "almost no effect"}]}
{"compound": "NCC(=O)CCC(=O)O", "note": "[ALA, 5-aminolevulinic acid]", "values": [{"measurement": "effect on tumor growth after PDT", "setting": "[1]", "result": "had no effect"}, {"measurement": "effect on tumor growth after PDT", "setting": "[2]; Example 2, FIG. 1, ALA 250 mg/kg i.p. and/or PHOTOFRIN 1 mg/kg i.v., laser 632 nm, 150 mW/cm^2 for 15 min, 3 hours after drug", "result": "had an effect on the tumor growth"}, {"measurement": "effect on tumor growth after PDT", "setting": "[2]; [5]", "result": "had an effect on the tumor growth"}, {"measurement": "fluorescence localization of ALA-induced porphyrins in tumor tissue", "setting": "[3]", "result": "almost entirely localized within the tumor cells"}]}
{"compound": "COC(=O)CCC(=O)CN", "note": "[ALA-methyl ester, 5-ALA methyl ester]", "values": [{"measurement": "anti-tumour effect after PDT", "setting": "[1]; lamp one hour after injection", "result": "had no anti-tumour effect"}, {"measurement": "effect on tumour growth after PDT", "setting": "[1]; [6]", "result": "did not have any effect on tumor growth"}]}
{"compound": "C=Cc1c(C)c2cc3nc(c(CC(=O)O)c4[nH]c(cc5nc(cc1[nH]2)C(C)=C5CC)c(C)c4C(=O)O)[C@@H](CCC(=O)O)[C@@H]3C", "note": "[chlorin e6]", "values": [{"measurement": "effect on tumor growth after PDT", "setting": "[1]", "result": "had no effect"}]}
{"compound": "Oc1cccc(-c2c3nc(c(-c4cccc(O)c4)c4ccc([nH]4)c(-c4cccc(O)c4)c4nc(c(-c5cccc(O)c5)c5ccc2[nH]5)CC4)C=C3)c1", "note": "[m-THPC, tetra(meso-hydroxyphenyl)chlorin]", "values": [{"measurement": "effect on tumor growth after PDT", "setting": "[2]; [5]", "result": "no effect"}]}
{"compound": "Aluminium phthalocyanine di-sulfonate [A1PcS2a]", "values": [{"measurement": "anti-tumour effect after PDT", "setting": "[1]; lamp one hour after injection", "result": "a slight effect"}, {"measurement": "effect on tumour growth after PDT", "setting": "[1]; [4]", "result": "immediate effect"}, {"measurement": "time to 4× initial tumour volume", "setting": "[1]; Example 5.4, FIG. 7, A1PcS2a 1 mg/kg i.v. alone, lamp one hour after injection", "result": "≤ 14", "unit": "days"}]}
{"compound": "Aluminium phthalocyanine tetra-sulfonate [A1PcS4]", "values": [{"measurement": "effect on tumour growth after PDT", "setting": "[1]; Example 5.3, FIG. 6, 5-ALA butyl ester 338 mg/kg i.p. and/or A1PcS4 1 mg/kg i.v., lamp one hour after injection", "result": "moderate effect on tumour growth"}, {"measurement": "effect on tumour growth after PDT", "setting": "[1]; Example 5.3, FIG. 6, high dose A1PcS4 5 mg/kg i.v. alone, lamp one hour after injection", "result": "strongly delayed growth"}, {"measurement": "effect on tumour growth after PDT", "setting": "[1]; [6]", "result": "intermediate effect"}]}
